The text below walks through data of patent US5618844A, “Hydroxamic acid and carboxylic acid derivatives, process for their preparation and use thereof” (Sanofi S.A., priority 1995, dated 1997).

Common to all, as to type: biochemical
Experiment [1] has as its target T1, Human Fibroblast Collagenase (Homo sapiens, UniProt P03956).
T1 construct: All active MMPs are purified by gel filtration; made in house
T1 sequence (P03956 100-269 limits assumed): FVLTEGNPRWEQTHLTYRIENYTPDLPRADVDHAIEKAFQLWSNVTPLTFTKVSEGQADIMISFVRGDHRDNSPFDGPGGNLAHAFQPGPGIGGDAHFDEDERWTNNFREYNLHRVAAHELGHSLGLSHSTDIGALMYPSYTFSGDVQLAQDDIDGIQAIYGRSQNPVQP
The experiment can be described thus: inhibition of recombinant MMP, peptide substrate assay with fluorescamine detection (HFC). The following applies: calculated from measured percent inhibition using Km, assuming competitive inhibition; Met1-Pro250 proenzyme, activated with p-aminophenylmercury.

The target in experiment [2] is T2, Human Fibroblast Stromelysin (Homo sapiens, UniProt P08254).
T2 construct: expressed as mature enzymes with C-terminal truncations, Phe83-Thr260 and Met100-Gly262, respectively; made in house
The experiment can be described thus: inhibition of recombinant MMP, peptide substrate assay with fluorescamine detection (HFS).

Experiment [3] addresses T3, Human Neutrophil Collagenase (Homo sapiens, UniProt P22894).
T3 construct: expressed as mature enzymes with C-terminal truncations, Phe83-Thr260 and Met100-Gly262, respectively; made in house
The experiment can be described thus: inhibition of recombinant MMP, peptide substrate assay with fluorescamine detection (HNC). The following applies: calculated from measured percent inhibition using Km, assuming competitive inhibition; Met100-Gly262.

T2 sequence (P08254 100-277): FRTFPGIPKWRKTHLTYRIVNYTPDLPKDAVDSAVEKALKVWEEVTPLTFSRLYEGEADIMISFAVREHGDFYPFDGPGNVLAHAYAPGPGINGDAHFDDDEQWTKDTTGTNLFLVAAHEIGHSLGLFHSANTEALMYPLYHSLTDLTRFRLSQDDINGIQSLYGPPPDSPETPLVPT
T3 sequence (P22894 100-262): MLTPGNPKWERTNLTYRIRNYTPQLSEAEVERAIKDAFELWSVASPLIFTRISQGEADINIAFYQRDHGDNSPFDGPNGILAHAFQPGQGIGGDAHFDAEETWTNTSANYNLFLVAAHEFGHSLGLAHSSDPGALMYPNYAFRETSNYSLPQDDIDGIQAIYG

As for `CNC(=O)[C@@H](NC(=O)[C@H](CCCCOc1ccc(Cl)cc1)CC(=O)NO)C(C)(C)C` [Example 17, (2S)-N-2'-[(2'R)-2'-[2"-(Hydroxyamino)-2"-(oxo)ethyl]-6'-(4-chlorophenoxy)hexanoyl]amino-3,3-dimethylbutanoic acid N-methylamide], in experiment [1], the Ki is 21 nM. As to `CNC(=O)[C@@H](NC(=O)[C@H](CCCCO)CC(=O)NO)C(C)(C)C` [Example 9, (2S)-N-2-[(2'R)-2'-[2"-(Hydroxyamino)-2"-(oxo)ethyl]-6'-(hydroxy)hexanoyl]amino-3,3-dimethylbutanoic acid N-methylamide], the inhibitory constant (Ki) is 5000 nM in experiment [2], 27 nM in experiment [1] and 17 nM in experiment [3]. `CNC(=O)[C@H](Cc1ccccc1)NC(=O)[C@H](CCCCO)CC(=O)NO` [Example 3, N-[(2R)-2-[2'-(hydroxyamino)-2'-(oxo)ethyl]-6-(hydroxy)hexanoyl]-L-phenylalanine N-methylamide]: the Ki in experiment [1] is 30 nM; in experiment [3], 7 nM. `CNC(=O)[C@H](Cc1ccccc1)NC(=O)[C@H](CCCCOCc1ccccc1)CC(=O)NO` [Example 2, N-[(2R)-2-[2'-(Hydroxyamino)-2'(oxo)ethyl]-6-(phenylmethoxy)hexanoyl]-L-phenylalanine N-methylamide]: the Ki in experiment [1] is 1450 nM. As for `CNC(=O)[C@@H](NC(=O)[C@H](CCCCOCc1ccccc1)CC(=O)NO)C(C)(C)C` [Example 8, (2S)-N-2-[(2'R)-2'-[2"-(Hydroxyamino)-2"-(oxo)ethyl]-6'-(phenylmethoxy)hexanoyl]amino-3,3-dimethylbutanoic acid N-methylamide], the inhibition constant (Ki) in experiment [2] is 57 nM; in experiment [1], 1400 nM; in experiment [3], 5 nM. Consider `CNC(=O)[C@H](Cc1ccccc1)NC(=O)[C@H](CCCOCc1ccccc1)CC(=O)NO` [Example 10, N-[(2R)-2-[2'-(Hydroxyamino)-2'-(oxo)ethyl]-5-(phenylmethoxy)pentanoyl]-L-phenylalanine N-methylamide], for which the Ki in experiment [1] was 2270 nM. `CCCNC(=O)CCC[C@H](CC(=O)NO)C(=O)N[C@@H](Cc1ccccc1)C(=O)NC` [Example 5, N-[(2R)-2-[2'-(Hydroxyamino)-2'-(oxo)ethyl]-6-(propylamino)-6-(oxo)hexanoyl]-L-phenylalanine N-methylamide]: the figures for the Ki in experiment [1] and in experiment [3] were 5100 nM and less than 2 nM, respectively. With `CCCC(=O)NCCCC[C@H](CC(=O)NO)C(=O)N[C@@H](Cc1ccccc1)C(=O)NC` [Example 12], the Ki in experiment [1] is 1600 nM; in experiment [3] it was 120 nM. Consider `CNC(=O)[C@H](Cc1ccccc1)NC(=O)[C@H](CCCCCOCc1ccccc1)CC(=O)NO` [Example 11, N-[(2R)-2-[2'-(Hydroxyamino)-2'-(oxo)ethyl]-7-(phenylmethoxy)heptanoyl]-L-phenylalanine N-methylamide], for which the values for the Ki in experiment [1] and in experiment [3] were 920 nM and 4 nM, respectively. Take `CNC(=O)[C@H](Cc1ccccc1)NC(=O)[C@H](CCCCOc1ccccc1)CC(=O)NO` [Example 13, N-[(2R)-2-[2'-(Hydroxyamino)-2'-(oxo)ethyl]-6-(phenoxy)-hexanoyl]-L-phenylalanine N-methylamide]: in experiment [1], the Ki is 8 nM. For the molecule `CNC(=O)[C@H](Cc1ccccc1)NC(=O)[C@H](CCCC(=O)O)CC(=O)NO` [Example 4, N-[(2R)-2-[2'-(Hydroxyamino)-2'-(oxo)ethyl]-5-(carboxy)pentanoyl]-L-phenylalanine N-methylamide], the Ki in experiment [3] was 270 nM. With `CNC(=O)[C@@H](NC(=O)[C@H](CCCCOc1cccc(C)c1)CC(=O)O)C(C)(C)C` [Example 19, (2S)-N-2'-[(2'R)-2'-(carboxymethyl)-6'-(3-methylphenoxy)hexanoyl]amino-3,3-dimethylbutanoic acid N-methylamide], the Ki in experiment [2] was 220 nM; in experiment [1], 1800 nM. On to `CNC(=O)[C@@H](NC(=O)[C@H](CCCC(=O)NCCc1ccccc1)CC(=O)NO)C(C)(C)C` [Example 15, (2S)-N-2'-[(2'R)-2'-[2"-(Hydroxyamino)-2"-(oxo)ethyl]-6'-(2-phenethylamino)-6' (oxo)hexanoyl]amino-3,3-dimethylbutanoic acid N-methylamide], for which the figures for the Ki in experiment [2], in experiment [1] and in experiment [3] were 26 nM, 35 nM and 16 nM, respectively. In the case of `CNC(=O)[C@H](Cc1ccccc1)NC(=O)[C@H](CCCC(C)O)CC(=O)NO` (stereo partly drawn) [Example 6, N-[(2R)-2-[2'-(Hydroxyamino)-2'-(oxo)ethyl]-(6RS)-6-(hydroxy)heptanoyl]-L-phenylalanine N-methylamide], the values for the Ki in experiment [2], in experiment [1] and in experiment [3] were 1500 nM, 150 nM and 20 nM, respectively.

Turning to `CNC(=O)[C@@H](NC(=O)[C@H](CCCCOc1ccc(C)cc1)CC(=O)NO)C(C)(C)C` [Example 16, (2S)-N-2'-[(2'R)-2'-[2"-(Hydroxyamino)-2"-(oxo)ethyl]-6'-(4-methylphenoxy)hexanoyl]amino-3,3-dimethylbutanoic acid N-methylamide], in experiment [1], the Ki was 14 nM.

For orientation: Ki means the dissociation constant of the complex between target and ligand, obtained from inhibition or displacement.
